According to BindingDB's records for doi:10.1016/s0960-894x(01)00002-6 (Kyushu University, 2001):

The compounds below were run against DNA polymerase I (Escherichia coli) (UniProt P00582) (assay: Compound was evaluated for its inhibitory activity against Klenow enzyme).
Sequence of DNA polymerase I (Escherichia coli) (P00582 whole entry, looked up): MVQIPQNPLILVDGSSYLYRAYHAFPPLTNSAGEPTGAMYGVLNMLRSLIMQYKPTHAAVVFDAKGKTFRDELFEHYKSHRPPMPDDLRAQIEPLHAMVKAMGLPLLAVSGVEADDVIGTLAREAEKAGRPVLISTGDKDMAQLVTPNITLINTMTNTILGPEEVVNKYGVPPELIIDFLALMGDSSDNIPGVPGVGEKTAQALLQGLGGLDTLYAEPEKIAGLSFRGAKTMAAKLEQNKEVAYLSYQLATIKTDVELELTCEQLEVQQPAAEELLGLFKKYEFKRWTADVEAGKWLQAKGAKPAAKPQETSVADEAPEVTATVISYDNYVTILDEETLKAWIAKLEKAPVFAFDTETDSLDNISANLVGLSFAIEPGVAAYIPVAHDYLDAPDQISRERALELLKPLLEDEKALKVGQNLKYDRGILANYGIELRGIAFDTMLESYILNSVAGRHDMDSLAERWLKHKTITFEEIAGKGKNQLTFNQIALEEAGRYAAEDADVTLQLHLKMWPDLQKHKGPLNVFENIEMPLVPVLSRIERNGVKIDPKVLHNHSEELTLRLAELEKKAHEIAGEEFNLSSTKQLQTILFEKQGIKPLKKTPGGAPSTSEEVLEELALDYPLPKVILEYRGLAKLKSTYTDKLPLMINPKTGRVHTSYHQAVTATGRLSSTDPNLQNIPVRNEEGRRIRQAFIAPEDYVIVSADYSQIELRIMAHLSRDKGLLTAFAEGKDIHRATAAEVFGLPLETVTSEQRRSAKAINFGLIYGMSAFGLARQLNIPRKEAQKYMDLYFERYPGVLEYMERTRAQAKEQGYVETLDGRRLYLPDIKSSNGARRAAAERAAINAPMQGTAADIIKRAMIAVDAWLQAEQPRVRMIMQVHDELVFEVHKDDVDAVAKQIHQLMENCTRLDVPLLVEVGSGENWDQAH

Structure (SMILES) | IC50 [µM]
O=C(Cc1cn(CCn2ccc3cc(Cl)ccc32)c2ccccc12)NCCCCCCCCCCCCOP(=O)(O)Oc1cccc(Cl)c1 [Phosphoric acid 12-(2-{1-[2-(5-chloro-indol-1-yl)-ethyl]-1H-indol-3-yl}-acetylamino)-dodecyl ester 3-chloro-phenyl ester; compound with triethyl-amine] | 70
O=C(Cc1cn(CCn2ccc3cc(Cl)ccc32)c2ccccc12)NCCCCCCCCCCCCOP(=O)(O)OC1CCCCC1 [Phosphoric acid 12-(2-{1-[2-(5-chloro-indol-1-yl)-ethyl]-1H-indol-3-yl}-acetylamino)-dodecyl ester cyclohexyl ester; compound with triethyl-amine] | 101
O=C(Cc1cn(CCn2ccc3cc(Cl)ccc32)c2ccccc12)NCCCCCCCCCCCCOP(=O)(O)Oc1ccccc1 [Phosphoric acid 12-(2-{1-[2-(5-chloro-indol-1-yl)-ethyl]-1H-indol-3-yl}-acetylamino)-dodecyl ester phenyl ester; compound with triethyl-amine] | 61
